Source: US20130202629A1, “USES OF PHOSPHOLIPID CONJUGATES OF SYNTHETIC TLR7 AGONISTS” (The Regents of the University of California, priority 2010, published 2013)

System: C57BL/6 mice
Format: in vivo, mouse
Description: Anti-OVA antibodies of the IgG subclasses (and in some embodiments specifically IgG1 and IgG2) were measured by ELISA, as described in Cho, H. J et al., “Immunostimulatory DNA-based vaccines induce cytotoxic lymphocyte activity by a T-helper cell-independent mechanism” [see comments], Nat. Each ELISA plate contained a titration of a previously quantitated serum to generate a standard curve. The titer of this standard was calculated as the highest dilution of serum that gave an absorbance reading that was double the background. The various sera samples were tested at a 1:100 dilution. The results are expressed in units per mL, calculated based on the units/mL of the standard serum, and represent the mean±SEM of five animals in each group. * and T denote P<0.05 and P<0.01 by One-way ANOVA compared to the mice immunized with OVA mixed with vehicle, respectively.
Spleenocytes were prepared from the harvested spleens. […] The levels of IFNα in the culture supernatants were measured by ELISA (BD Bioscience PharMingen) as per the manufacturer's instructions (Kobayashi, H et al., Prepriming: a novel approach to DNA-based vaccination and immunomodulation”, Springer Semin. Immunopathol., 22:85 (2000)), and the results illustrated in FIG. 5C. Average total spleen cell number in each group were calculated and compared to the PBS-immunized groups to monitor the spleen cell proliferation. Data are mean±SEM of five mice and are representative of three independent experiments.
The efficiency of adjuvanticity was assessed by measurement of the levels and isotypes of the antigen-specific IgG that the vaccine induces, in particular IgG1 and IgG2 (Mosmann, T. R., and Coffman, R. L., ‘TH1 and TH2 cells: different patterns of lymphokine secretion lead to different functional properties’, Annual Review Immunology, 7:145 (1989)). […] ISS-ODN was used as a potent Th1 adjuvant positive control.

Question: Which results are given for `CCCCCCCC/C=C\CCCCCCCC(=O)OCC(COP(=O)(O)OCCNC(=O)c1ccc(Cn2c(=O)[nH]c3c(N)nc(OCCOC)nc32)cc1)OC(=O)CCCCCCC/C=C\CCCCCCCC` (stereo not drawn) [Compound 6, 2-(4-((6-amino-2-(2-methoxyethoxy)-8-oxo-7H-purin-9(8H)-yl)methyl)benzamido)ethyl 2,3-bis(oleoyloxy)propyl phosphate]?
Answer: adjuvant activity when administered with the antigen ovalbumin (mouse, in vivo): potent adjuvant; earliest induction of OVA-specific antibodies of the IG subclass (FIG. 5A) (s.c. 20 μg OVA + 10 nmol conjugate on days 0 and 7): 14 days; OVA-specific IFN secretion by spleen cells (splenocytes of day 56 restimulated with OVA (FIG. 5C)): enhanced
